The values that follow are results of earlier work, collected in patent publication US11890375B2, “Ophthalmic solution of difluprednate” (SUN PHARMA ADVANCED RESEARCH COMPANY LIMITED, priority 2015, dated 2024).

For `CCCC(=O)O[C@]1(C(=O)COC(C)=O)CC[C@H]2[C@@H]3C[C@H](F)C4=CC(=O)C=C[C@]4(C)[C@@]3(F)[C@@H](O)C[C@@]21C` [Difluprednate], the “solubility in aqueous vehicle” value is “practically insoluble”.
